Results taken from US7417036B2, “Crystal form of adefovir dipivoxil and its preparation” (Tianjin Kinsly Pharmaceutical Co. Ltd., priority 2002, dated 2008).
Values joined by “and” are separate entries in the source; they are usually repeats but may differ in a detail not shown here. Equal values may be shown once.

Assay: Kinetic studies of the plasma concentration in animals with different crystalline forms of AD (oral, monkeys; adefovir measured in serum by HPLC)
Type: in vivo, Macaques
Conditions: 20 mg/kg, 20 mg/kg
Experimental: The experiment was carried out by orally administering to monkeys the drugs in order to investigate the in vivo absorption of two crystalline forms of AD: the novel crystalline AD of the present invention produced by Tianjin Kinsly pharmaceutical R & D Co. Ltd. and crystalline form I of AD prepared according to the method of GILEAD SCIENCES INC. The experiment provides useful clinical references for the application of novel crystalline AD.
Tablets of novel crystalline form of AD, white, each of which contains 10 mg of adefovir, Tianjin Kinsly pharmaceutical R&D Co. Ltd., batch number 020320.
Tablets of AD crystalline form I, white, each of which contains 10 mg of adefovir, Tianjin Kinsly pharmaceutical R&D Co. Ltd., batch number 020225.
Macaques, weighing from 5 kg to 8 kg (certificate No: 2001-03, approved by Beijing Forestry Administration in the document of [2001] 83) were provided by Xie'er Animal Health Caring Science and Technology Co. Ltd (Beijing, P. R. China).
As the pro-drug of adefovir, AD is the bis-pivaloyloxymethyl ester of adefovir, which increases the in vivo bioavailability of orally administered adefovir. AD can be rapidly metabolized into PMEA, rendering it undetectable in blood. Thus the concentration of its parent compound was measured.
Mobile phase: 0.2% phosphoric acid-methanol-B7 (97:3:0.5) degassed and filtrated through 0.45 μm milipore filter.
Stationary phase: C18-column (4.6×250 mm) packed with 5μ fillers, Tianjin Tianhe Chromatogram Inc, the column temperature from 18° C. to 22° C.
Detection: the UV detection wavelength λ=260 nm (0.01AUFS)
A given volume of serum was taken and an equal volume of 10% trichloroacetic acid was added. The mixture was shaken thoroughly and kept still for more than 30 min to precipitate the proteins, then centrifuged at 10000 rpm for 2 min. The precipitates were separated and 30 μL of the supernat was removed for injection.
The experiment was started one week after intestinal worms were dispelled from the animals. Eight animals were randomly assigned into two groups, each consisting of four animals. The animals were fasted for 12 h and were orally administered the novel crystalline form of AD for one group or crystalline form I of AD for another group at a dose of 20 mg/kg together with 200 ml of water. 2 hours after administration, the animals were fed in a fixed quantity. 2.0 ml samples of whole blood were collected from the elbow veins before administration and 10, 20, 30, 45 min and 1, 2, 4, 6, 8, 12, and 24 h after administration. The serum was separated and freeze-stored for measurement. A cross-experiment was done similarly 2 weeks later.
The pharmacokinetic parameters were calculated based on the plasma concentrations at different time points. The time to peak concentration (Tpeak) and the maximum concentration (Cmax) used the measured value. The terminal phase elimination rate constant (Ke) was obtained by fitting the linear section of the curve of logarithm of the plasma concentration of drug in terminal phase versus time and the terminal phase clearance half life time (T1/2) was calculated by dividing 0.693 by Ke. AUC0-t was calculated according to the trapezoid rule.
Apparent volume of distribution (Vd)=dosage/(AUCXKe);
Total Clearance (CL)=dosage/AUC.
Comparison of the data of the two crystalline form: Data of Cmax, Ke, T1/2 and AUC0-t were statistically processed by t test, while Tpeak was processed by non-parametric test. In addition, Comparison of bio-equivalence was carried out based on Cmax and AUC0-t by using two one-sided t test.
Eight macaques were assigned into two groups, group for the novel crystalline form and the group for crystalline form I. The animals were administered according to an open randomized crossover scheme. Afterward, adefovir concentrations in serum were measured at the predetermined time points. […]

[1] = adefovir, oral 20 mg/kg, macaques, average of 8 animals (ASD row)
[2] = adefovir, oral 20 mg/kg, macaques, average of 8 animals
[3] = adefovir, oral 20 mg/kg, macaques, individual animal No. 1-8

## CC(C)(C)C(=O)OCOP(=O)(COCCn1cnc2c(N)ncnc21)OCOC(=O)C(C)(C)C [novel crystalline form]
0.167 h after oral administration, macaques, average of 8 animals (ASD row)
  Adefovir concentrations in serum (Plasma concentrations versus time), average: 74.3 ng/mL
0.167 h after oral administration, macaques, individual animal No. 1-8
  Adefovir concentrations in serum (Plasma concentrations versus time): 51.8 ng/mL and 105.0 ng/mL and 103.9 ng/mL and 78.3 ng/mL and 64.9 ng/mL and 53.2 ng/mL and 60.0 ng/mL and 76.9 ng/mL
0.333 h after oral administration, macaques, average of 8 animals (ASD row)
  Adefovir concentrations in serum (Plasma concentrations versus time), average: 201.4 ng/mL
0.333 h after oral administration, macaques, individual animal No. 1-8
  Adefovir concentrations in serum (Plasma concentrations versus time): 186.7 ng/mL and 258.5 ng/mL and 248.8 ng/mL and 190.1 ng/mL and 125.9 ng/mL and 154.1 ng/mL and 176.3 ng/mL and 270.7 ng/mL
0.5 h after oral administration, macaques, average of 8 animals (ASD row)
  Adefovir concentrations in serum (Plasma concentrations versus time), average: 507.4 ng/mL
0.5 h after oral administration, macaques, individual animal No. 1-8
  Adefovir concentrations in serum (Plasma concentrations versus time): 952.4 ng/mL and 403.1 ng/mL and 398.3 ng/mL and 541.8 ng/mL and 396.0 ng/mL and 448.9 ng/mL and 529.4 ng/mL and 389.5 ng/mL
0.75 h after oral administration, macaques, average of 8 animals (ASD row)
  Adefovir concentrations in serum (Plasma concentrations versus time), average: 392.0 ng/mL
0.75 h after oral administration, macaques, individual animal No. 1-8
  Adefovir concentrations in serum (Plasma concentrations versus time): 507.6 ng/mL and 306.8 ng/mL and 538.7 ng/mL and 360.6 ng/mL and 278.8 ng/mL and 195.6 ng/mL and 393.7 ng/mL and 55.0 ng/mL
1 h after oral administration, macaques, average of 8 animals (ASD row)
  Adefovir concentrations in serum (Plasma concentrations versus time), average: 238.8 ng/mL
1 h after oral administration, macaques, individual animal No. 1-8
  Adefovir concentrations in serum (Plasma concentrations versus time): 260.3 ng/mL and 231.8 ng/mL and 374.7 ng/mL and 269.4 ng/mL and 233.5 ng/mL and 132.7 ng/mL and 273.4 ng/mL
2 h after oral administration, macaques, average of 8 animals (ASD row)
  Adefovir concentrations in serum (Plasma concentrations versus time), average: 199.3 ng/mL
2 h after oral administration, macaques, individual animal No. 1-8
  Adefovir concentrations in serum (Plasma concentrations versus time): 221.6 ng/ml and 196.1 ng/ml (2×) and 241.4 ng/ml and 117.7 ng/ml and 105.3 ng/ml and 260.3 ng/ml
4 h after oral administration, macaques, average of 8 animals (ASD row)
  Adefovir concentrations in serum (Plasma concentrations versus time), average: 157.3 ng/mL
4 h after oral administration, macaques, individual animal No. 1-8
  Adefovir concentrations in serum (Plasma concentrations versus time): 205.1 ng/mL and 140.9 ng/mL and 184.8 ng/mL and 198.9 ng/mL and 175.8 ng/mL and 85.0 ng/mL and 77.2 ng/mL and 191.0 ng/mL
6 h after oral administration, macaques, average of 8 animals (ASD row)
  Adefovir concentrations in serum (Plasma concentrations versus time), average: 119.7 ng/mL
6 h after oral administration, macaques, individual animal No. 1-8
  Adefovir concentrations in serum (Plasma concentrations versus time): 177.0 ng/mL and 114.5 ng/mL and 95.2 ng/mL and 141.2 ng/mL and 141.3 ng/mL and 85.9 ng/mL and 57.3 ng/mL and 145.3 ng/mL
8 h after oral administration, macaques, average of 8 animals (ASD row)
  Adefovir concentrations in serum (Plasma concentrations versus time), average: 102.7 ng/mL
8 h after oral administration, macaques, individual animal No. 1-8
  Adefovir concentrations in serum (Plasma concentrations versus time): 158.9 ng/mL and 96.9 ng/mL and 112.0 ng/mL and 89.4 ng/mL and 110.7 ng/mL and 79.0 ng/mL and 55.6 ng/mL and 119.2 ng/mL
12 h after oral administration, macaques, average of 8 animals (ASD row)
  Adefovir concentrations in serum (Plasma concentrations versus time), average: 70.3 ng/mL
12 h after oral administration, macaques, individual animal No. 1-8
  Adefovir concentrations in serum (Plasma concentrations versus time): 112.6 ng/mL and 82.1 ng/mL and 46.1 ng/mL and 64.5 ng/mL and 44.8 ng/mL and 59.4 ng/mL and 80.5 ng/mL and 72.2 ng/mL
24 h after oral administration, macaques, average of 8 animals (ASD row)
  Adefovir concentrations in serum (Plasma concentrations versus time), average: 51.7 ng/mL
24 h after oral administration, macaques, individual animal No. 1-8
  Adefovir concentrations in serum (Plasma concentrations versus time): 99.3 ng/mL and 76.3 ng/mL and 28.3 ng/mL and 53.1 ng/mL and 36.6 ng/mL and 41.6 ng/mL and 59.4 ng/mL and 19.2 ng/mL
Adefovir apparent volume of distribution, oral 20 mg/kg, macaques, individual animal No. 1-8
  Vd: 147.5 L and 211.8 L and 89.1 L and 115.1 L and 112.4 L and 265.9 L and 224.6 L and 67.1 L
[1]
  CL, average: 8601.4 mL/h
  Ke, average: 0.066 L/h
  T1/2, average: 12.5 h
  Tpeak, average: 0.56 h
  Vd, average: 154.2 L
[2]
  AUC0-t, average: 2426.4 ng·h/mL
  Cmax, average: 545.7 ng/mL
adefovir, oral 20 mg/kg, macaques, average of 8 animals, listed as Novel form
  AUC0-t, average: 2426 ng·h/mL
[3]
  AUC0-t: 3593.4 ng·h/mL and 2567.8 ng·h/mL and 2318.3 ng·h/mL and 2554.7 ng·h/mL and 2162.8 ng·h/mL and 1735.9 ng·h/mL and 1921.2 ng·h/mL and 2556.8 ng·h/mL
  Cmax: 403.1 ng/mL and 538.7 ng/mL and 541.8 ng/mL and 396.3 ng/mL and 448.9 ng/mL and 529.4 ng/mL and 555.0 ng/mL
  T1/2: 18.4 h and 18.8 h and 7.2 h and 10.2 h and 8.4 h and 16.0 h and 14.9 h and 5.9 h
  Tpeak: 0.50 h (6×) and 0.75 h (2×)
adefovir, oral 20 mg/kg, macaques, individual animal No. 1-8, listed as Novel form
  Cmax: 952.4 ng/mL and 396.2 ng/mL and 448.8 ng/mL
adefovir, oral 20 mg/kg
  average AUCO-T: 2426.37 ng·h/mL
  average Tpeak: 0.56 h
  average apparent volume of distribution (Vc): 19.74 L
  average elimination half-life time: 12.5 h
  average peak concentration: 545.69 ng/mL
